Patent publication US8871753B2, “Macrocyclic compounds and their use as kinase inhibitors” (Incyte Corporation, priority 2008, dated 2014)
Counter-ions that a name gives are not always drawn. Like-named read-outs stand apart in the source and are kept apart here.

How the values were obtained:
Assay type in all cases: biochemical
[1] = target: T1, human JAK1 (a.a. 837-1142) (Homo sapiens, UniProt P23458); experiment: In vitro JAK kinase assay (HTRF, phosphorylation of a biotinylated peptide), JAK1; settings: read-out: JAK1 IC50
T1 construct: human JAK1 (a.a. 837-1142); His tag (N); made in house; host or cells: insect cells (baculovirus)
Method in brief: (§1)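 Kinase reactions ran at room temperature for 1 h with ATP matched per isoform (JAK1 90 μM, JAK2 30 μM, JAK3 3 μM). After an EDTA stop, the phosphorylated biotin-peptide was read by HTRF using Eu-Py20 and SA-APC after 40 min binding.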

[2] = target: T2, human JAK2 (a.a. 828-1132) (Homo sapiens, UniProt O60674); experiment: In vitro JAK kinase assay (HTRF, phosphorylation of a biotinylated peptide), JAK2
T2 construct: JAK2 (a.a. 828-1132); His tag (N); made in house; host or cells: insect cells (baculovirus)
Method in brief: as §1

[3] = target: T3, human JAK3 (a.a. 781-1124) (Homo sapiens, UniProt P52333); experiment: In vitro JAK kinase assay (HTRF, phosphorylation of a biotinylated peptide), JAK3
T3 construct: JAK3 (a.a. 781-1124); His tag (N); made in house; host or cells: insect cells (baculovirus)
Method in brief: as §1

TYK2 = TYK2 (Homo sapiens, UniProt P29597); experiment: TYK2 kinase inhibition (Table A1)
[4] = target: T4, Recombinant Human Anaplastic Lymphoma Kinase (Homo sapiens, UniProt Q9UM73); experiment: ALK HTRF kinase assay
T4 construct: purchased Invitrogen, Carlsbad, Calif
Method in brief: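 Recombinant human ALK with biotinylated peptide substrate; phosphorylation detected by HTRF using Eu-labelled anti-phosphotyrosine antibody and streptavidin-allophycocyanin. IC50 from a sigmoidal fit with Hill slope.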

[5] = method AA1 (90 μM ATP) or AA2 (1000 μM ATP), not stated per value
[6] = method AA1 (30 μM ATP) or AA2 (1000 μM ATP), not stated per value
[7] = method AA1 (3 μM ATP) or AA2 (1000 μM ATP), not stated per value
[8] = compound at 500 nM or 1 mM, 90 μM ATP
[9] = compound at a concentration of 500 nM or 1 mM (not specified), cells shown as percentage

T3 sequence (P52333 781-1124): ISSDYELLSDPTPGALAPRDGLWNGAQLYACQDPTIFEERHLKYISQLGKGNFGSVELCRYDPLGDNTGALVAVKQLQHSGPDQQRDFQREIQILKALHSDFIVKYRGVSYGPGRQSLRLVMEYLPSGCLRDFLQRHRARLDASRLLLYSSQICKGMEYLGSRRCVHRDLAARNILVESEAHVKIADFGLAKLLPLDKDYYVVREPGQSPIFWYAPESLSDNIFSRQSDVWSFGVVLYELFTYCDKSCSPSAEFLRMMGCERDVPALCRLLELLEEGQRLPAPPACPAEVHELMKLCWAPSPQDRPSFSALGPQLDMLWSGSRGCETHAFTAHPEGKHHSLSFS
T2 sequence (O60674 828-1132): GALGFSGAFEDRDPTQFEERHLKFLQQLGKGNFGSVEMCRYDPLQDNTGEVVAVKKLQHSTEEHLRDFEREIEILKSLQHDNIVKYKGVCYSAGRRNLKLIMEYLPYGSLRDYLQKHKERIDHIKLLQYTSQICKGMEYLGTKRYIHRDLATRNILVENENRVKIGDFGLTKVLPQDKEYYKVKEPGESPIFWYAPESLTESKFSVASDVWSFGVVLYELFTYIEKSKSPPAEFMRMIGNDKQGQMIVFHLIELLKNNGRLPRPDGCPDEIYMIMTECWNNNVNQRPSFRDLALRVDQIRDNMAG
Sequence of TYK2 (P29597 whole entry): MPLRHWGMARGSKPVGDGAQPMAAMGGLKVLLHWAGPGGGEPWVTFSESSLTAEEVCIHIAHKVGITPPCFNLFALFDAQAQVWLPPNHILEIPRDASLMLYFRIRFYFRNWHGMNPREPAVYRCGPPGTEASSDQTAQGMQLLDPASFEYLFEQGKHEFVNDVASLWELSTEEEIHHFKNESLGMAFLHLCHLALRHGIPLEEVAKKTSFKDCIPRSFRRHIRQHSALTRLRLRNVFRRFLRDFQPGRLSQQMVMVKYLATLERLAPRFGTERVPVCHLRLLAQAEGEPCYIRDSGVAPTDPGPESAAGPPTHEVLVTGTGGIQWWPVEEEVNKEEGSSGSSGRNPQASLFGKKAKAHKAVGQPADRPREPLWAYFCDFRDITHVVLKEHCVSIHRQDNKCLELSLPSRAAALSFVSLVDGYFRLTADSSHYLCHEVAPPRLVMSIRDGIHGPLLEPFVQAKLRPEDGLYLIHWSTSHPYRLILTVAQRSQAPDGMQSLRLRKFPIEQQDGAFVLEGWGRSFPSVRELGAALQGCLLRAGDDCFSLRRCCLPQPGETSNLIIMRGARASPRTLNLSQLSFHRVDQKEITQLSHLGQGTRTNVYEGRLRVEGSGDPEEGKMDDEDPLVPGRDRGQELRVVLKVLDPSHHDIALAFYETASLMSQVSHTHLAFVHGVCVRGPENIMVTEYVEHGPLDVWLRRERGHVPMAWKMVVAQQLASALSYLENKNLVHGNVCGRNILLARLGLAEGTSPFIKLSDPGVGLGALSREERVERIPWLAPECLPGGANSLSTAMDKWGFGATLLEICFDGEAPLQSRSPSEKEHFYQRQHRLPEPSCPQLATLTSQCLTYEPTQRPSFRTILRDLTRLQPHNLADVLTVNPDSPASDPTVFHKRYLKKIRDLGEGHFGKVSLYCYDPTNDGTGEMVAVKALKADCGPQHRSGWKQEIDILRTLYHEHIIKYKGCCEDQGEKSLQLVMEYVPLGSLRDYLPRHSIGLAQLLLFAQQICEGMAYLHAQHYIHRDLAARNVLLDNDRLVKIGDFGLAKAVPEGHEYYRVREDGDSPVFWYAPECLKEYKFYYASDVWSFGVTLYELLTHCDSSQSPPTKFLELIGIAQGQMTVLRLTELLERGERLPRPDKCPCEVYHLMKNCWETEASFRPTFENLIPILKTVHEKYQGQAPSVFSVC
T1 sequence (P23458 849-1154): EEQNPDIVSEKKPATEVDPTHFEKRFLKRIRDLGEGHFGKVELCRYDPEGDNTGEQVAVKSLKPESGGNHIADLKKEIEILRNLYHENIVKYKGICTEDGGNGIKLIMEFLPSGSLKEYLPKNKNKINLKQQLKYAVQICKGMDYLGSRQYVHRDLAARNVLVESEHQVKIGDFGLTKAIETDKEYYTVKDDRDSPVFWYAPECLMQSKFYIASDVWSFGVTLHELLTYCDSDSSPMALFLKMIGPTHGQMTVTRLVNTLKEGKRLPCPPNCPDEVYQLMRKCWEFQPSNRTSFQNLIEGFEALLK
T4 sequence (Q9UM73 19-1620): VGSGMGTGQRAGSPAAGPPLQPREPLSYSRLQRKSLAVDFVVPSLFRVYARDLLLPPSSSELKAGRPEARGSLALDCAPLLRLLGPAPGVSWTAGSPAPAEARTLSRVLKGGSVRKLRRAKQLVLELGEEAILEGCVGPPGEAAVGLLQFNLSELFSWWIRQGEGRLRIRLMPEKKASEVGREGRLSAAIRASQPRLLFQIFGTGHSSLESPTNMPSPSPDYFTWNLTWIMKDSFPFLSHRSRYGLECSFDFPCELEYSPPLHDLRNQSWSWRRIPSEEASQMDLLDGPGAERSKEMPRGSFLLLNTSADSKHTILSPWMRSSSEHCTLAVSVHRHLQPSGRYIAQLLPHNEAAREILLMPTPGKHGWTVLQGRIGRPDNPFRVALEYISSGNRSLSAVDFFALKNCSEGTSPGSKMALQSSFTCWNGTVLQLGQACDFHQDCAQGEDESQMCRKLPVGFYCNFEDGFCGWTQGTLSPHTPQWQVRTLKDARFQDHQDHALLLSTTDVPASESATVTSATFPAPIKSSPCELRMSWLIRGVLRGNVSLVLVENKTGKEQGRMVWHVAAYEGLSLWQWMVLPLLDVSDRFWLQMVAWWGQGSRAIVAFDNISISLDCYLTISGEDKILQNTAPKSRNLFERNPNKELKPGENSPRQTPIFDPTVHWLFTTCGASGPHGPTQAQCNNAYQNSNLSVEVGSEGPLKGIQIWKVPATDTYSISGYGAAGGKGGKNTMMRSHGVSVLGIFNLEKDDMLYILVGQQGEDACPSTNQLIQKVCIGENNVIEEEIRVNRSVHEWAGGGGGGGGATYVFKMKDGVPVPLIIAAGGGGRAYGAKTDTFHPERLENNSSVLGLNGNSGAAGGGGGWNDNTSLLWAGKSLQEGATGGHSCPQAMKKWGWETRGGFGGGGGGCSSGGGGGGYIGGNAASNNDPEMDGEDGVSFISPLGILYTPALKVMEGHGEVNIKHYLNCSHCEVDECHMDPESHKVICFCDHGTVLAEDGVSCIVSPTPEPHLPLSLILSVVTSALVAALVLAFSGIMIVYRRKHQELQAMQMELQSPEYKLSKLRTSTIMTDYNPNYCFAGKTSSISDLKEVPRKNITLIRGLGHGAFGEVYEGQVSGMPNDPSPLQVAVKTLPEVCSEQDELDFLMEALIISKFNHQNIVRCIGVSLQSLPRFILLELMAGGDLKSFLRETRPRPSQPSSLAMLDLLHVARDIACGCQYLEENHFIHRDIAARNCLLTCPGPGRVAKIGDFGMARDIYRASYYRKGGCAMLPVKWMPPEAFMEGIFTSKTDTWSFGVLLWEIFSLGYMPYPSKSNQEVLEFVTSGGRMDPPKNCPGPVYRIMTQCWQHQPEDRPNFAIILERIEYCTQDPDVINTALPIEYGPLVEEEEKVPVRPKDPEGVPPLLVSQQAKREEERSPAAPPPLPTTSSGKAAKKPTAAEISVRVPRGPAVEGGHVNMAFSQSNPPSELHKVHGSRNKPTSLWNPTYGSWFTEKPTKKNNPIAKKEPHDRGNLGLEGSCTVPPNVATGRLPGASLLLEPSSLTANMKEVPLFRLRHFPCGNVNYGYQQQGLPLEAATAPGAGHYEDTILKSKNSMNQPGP

| SMILES | IC50 [1, 5] | IC50 [2, 6] | IC50 [3, 7] | IC50 (TYK2) | ALK % of inhibition at a concentration of 500 nM or 1 mM [4, 8] | IC50 ([1]; Table B1) | IC50 ([2]; Table B1) | IC50 ([3]; Table B1) | IC50 (TYK2; Table B1) | ALK % of inhibition at a concentration of 500 nM or 1 mM [4, 9] | further results |
| --- | --- | --- | --- | --- | --- | --- | --- | --- | --- | --- | --- |
| Cc1oncc1C(=O)N1CCC(CC(=O)Nc2ccc3cc2CCc2cncc(c2)Nc2ncc(Cl)c(n2)N3)CC1 [Example A131, N-[6-Chloro-2,4,8,18,22-pentaazatetracyclo[14.3.1.1(3,7).1(9,13)]docosa-1(20),3(22),4,6,9(21),10,12,16,18-nonaen-12-yl]-2-{1-[(5-methylisoxazol-4-yl)carbonyl]piperidin-4-yl}acetamide bis(trifluoroacetate)] | 6.6 nM | 36 nM | 225 nM | 45 nM | 20% |  |  |  |  |  |  |
| Clc1cnc2nc1Nc1cccc(c1)OCCc1cc(cc(-c3ccc(N4CCNCC4)nc3)c1)N2 [Example D33, 6-Chloro-19-(6-piperazin-1-ylpyridin-3-yl)-14-oxa-2,4,8,23-tetraazatetracyclo[15.3.1.1(3,7).1(9,13)]tricosa-1(21),3(23),4,6,9(22),10,12,17,19-nonaene tris(trifluoroacetate)] |  |  |  |  |  |  |  |  |  |  | IC50 ([1]; Table D1): 1.8 nM; IC50 ([2]; Table D1): 0.7 nM; IC50 ([3]; Table D1): 12 nM; IC50 (TYK2; Table D1): 4 nM; IC50 ([4]; Table D1, 90 μM ATP): 108 nM |
| OCc1ccc2cc1CCc1cccc(c1)Nc1ncc(Cl)c(n1)N2 [Example B23, [6-Chloro-2,4,8,22-tetraazatetracyclo[14.3.1.1(3,7).1(9,13)]docosa-1(20),3(22),4,6,9(21),10,12,16,18-nonaen-12-yl]methanol trifluoroacetate] |  |  |  |  |  | 0.2 nM | 0.8 nM | 1.2 nM | 1.8 nM | 75% |  |
| O=S1(=O)NCc2cccc(c2)Nc2nc(ncc2Cl)Nc2cccc1c2 [Example C3, 6-Chloro-16-thia-2,4,8,15,23-pentaazatetracyclo[15.3.1.1(3,7).1(9,13)]tricosa-1(21),3(23),4,6,9(22),10,12,17,19-nonaene 16,16-dioxide] |  |  |  | 91 nM |  |  |  |  |  |  | IC50 [1]: 81 nM; IC50 [2]: 37 nM; IC50 [3]: 115 nM; IC50 [4]: 6600 nM |
| Cc1cncc(N2CCN(C(=O)Nc3ccc4cc3CCc3cncc(c3)Nc3ncc(Cl)c(n3)N4)CC2)n1 [Example B308, N-[6-Chloro-2,4,8,18,22-pentaazatetracyclo[14.3.1.1(3,7).1(9,13)]docosa-1(20),3(22),4,6,9(21),10,12,16,18-nonaen-12-yl]-4-(6-methylpyrazin-2-yl)piperazine-1-carboxamide tris(trifluoroacetate)] |  |  |  |  |  | 16 nM | 83 nM | > 400 nM | 34 nM |  | ALK % of inhibition at a concentration of 500 nM or 1 mM ([4]; percentage inhibition of the example compound at a concentration of 500 nM or 1 mM (not specified which)): 79% |
| N#Cc1ccc(NC(=O)Nc2cc3cc(c2)Nc2nc(ncc2Cl)Nc2cccc(c2)CC3)cc1 [Example B212, N-[6-Chloro-2,4,8,22-tetraazatetracyclo[14.3.1.1(3,7).1(9,13)]docosa-1(20),3(22),4,6,9(21),10,12,16,18-nonaen-11-yl]-N′-(4-cyanophenyl)urea trifluoroacetate] |  |  |  |  |  | 400 nM | 238 nM | 312 nM | 500 nM | 14% |  |
| O=C(NCCNC(=O)c1ccccc1)Nc1ccc2cc1CCc1cccc(c1)Nc1ncc(Cl)c(n1)N2 [Example B189, N-{2-[({[6-Chloro-2,4,8,22-tetraazatetracyclo[14.3.1.1(3,7).1(9,13)]docosa-1(20),3(22),4,6,9(21),10,12,16,18-nonaen-12-yl]amino}carbonyl)amino]ethyl}benzamide trifluoroacetate] |  |  |  |  |  | 5 nM | 6.7 nM | 35 nM | 22 nM | 15% |  |
| CC(C)C(=O)N1CCC(CC(=O)Nc2ccc3cc2CCc2cncc(c2)Nc2ncc(Cl)c(n2)N3)CC1 [Example A103, N-[6-Chloro-2,4,8,18,22-pentaazatetracyclo[14.3.1.1(3,7).1(9,13)]docosa-1(20),3(22),4,6,9(21),10,12,16,18-nonaen-12-yl]-2-(1-isobutyrylpiperidin-4-yl)acetamide bis(trifluoroacetate)] | 10 nM | 21 nM | 156 nM | 15 nM | 24% |  |  |  |  |  |  |
| C[C@H](O)C(=O)Nc1ccc2cc1CCc1cccc(c1)Nc1ncc(Cl)c(n1)N2 [Example A106, (2S)—N-[6-Chloro-2,4,8,22-tetraazatetracyclo[14.3.1.1(3,7).1(9,13)]docosa-1(20),3(22),4,6,9(21),10,12,16,18-nonaen-12-yl]-2-hydroxypropanamide trifluoroacetate] | 18 nM | 10 nM | 6.2 nM | 22 nM | 21% |  |  |  |  |  |  |
